The text below walks through data of patent US20220267774A1, “METHODS AND COMPOSITIONS TO DIRECT BREAKDOWN OF INSULIN MRNA IN BENIGN FASHION” (CITY OF HOPE, priority 2019, published 2022).

Assay [1] relates to cells transfected with INS-DRiP-GFP vectors. As to the kind of experiment: DRiP-GFP expression from INS-DRiP-GFP vectors. The format is cell-based. As to conditions: both variants. The text has this: Method: Two vectors of INS-DRiP-GFP (one of the protective genotype and one of the susceptible genotype) that express insulin and DRiP linked to GFP were created (FIG. 28). The vectors were transfected into cells, and GFP expression was observed when translation is started at the DRiP start codon.

Assay [2] relates to human beta cell line (1.1B4). As to the kind of experiment: Insulin mRNA and DRiP protein expression in beta cell line under stress. The format is cell-based. As to conditions: 1.1B4 cells stressed with TG. The source says:
FIGS. 22A-B illustrates ex vivo cleavage of insulin mRNA in a cell line. FIG. 22A is a bar graph illustrating insulin mRNA expression change when beta cells are stressed with Thapsigargin (TG). FIG. 22B is a bar graph illustrating DRiP protein expression when beta cells are stressed with TG.
Ex vivo insulin mRNA expression and DRiP protein expression in beta cell line under stress. Ex vivo cleavage of insulin mRNA was examined in a 1.1B4 cell line. A human beta cell line (1.1B4) was stressed with Thapsigargin (chemical), with or without inhibition of IRE1, followed by analysis of the insulin mRNA expression and DRiP protein expression. […] But it is not enough to prevent an increase in DRiP expression. The protective SNP may have this effect ex vivo.

The subject of assay [3] is 293T cells transfected with INS-DRiP-GFP. Put plainly: Effect of ER stress inducers on DRiP expression in INS-DRiP-GFP transfected cells. The format is cell-based, human. As to conditions: western blot and flow cytometry. The text has this: FIG. 8A is a western blot of 293T cell lysates (left to right) in nontransfected cells (NT), or cells transfected with INS-DRiP-GFP that were untreated (−), stimulated with thapsigargin (TG), or stimulated with tunicamycin (TM). The western blot in FIG. 8A is labeled using anti-GFP, anti-insulin, and anti-actin antibodies. FIG. 8B is a chart depicting densitometry analyses of the western blot in FIG. 8A analyzing the GFP (black bars) and insulin bands (gray bars) and shown as induction ratio±s.d. where the intensity of the nontreated cells was used as reference (right).
The effect of endoplasmic reticulum stress (ER stress) on translation initiation was also determined. Cells transfected with INS-DRiP-GFP were stimulated with the ER stress-inducers thapsigargin (TG) or tunicamycin (TM).

The target in assay [4] is HLA-DQ2trans (Homo sapiens, UniProt P01909+P01920, A45G/A70V/C70Q/D89A/E106A/E183D/E77G/E98D/G63E/H199R/I129T/K197E/L107V/L178F/L74F/L98V/N214S/P84L/P87L/Q57E/Q76R/S185I/S97I/T103K/T109R/T172A/T49S/T60S/V73L/V78E/V99I/Y58L/Y62S/Y69I/Y79F). As to conditions: cell-free; cited from earlier work.
Assay [5] deals with HLA-DQ8cis (Homo sapiens, UniProt P01909+P01920, A209T/A45G/C70Q/D89A/E183D/E77G/F237L/G63E/H199R/I129T/K197E/L178F/L74F/L98V/Q57E/Q76R/S185I/S97I/T217I/T49S/V73L/Y58L). As to conditions: cell-free; cited from earlier work.
The next assay has as its system HLA-A2. To be noted: cited from earlier work.
The target of assay [6] is HLA-DQ8trans (Homo sapiens, UniProt P01909+P01920, A45G/D89A/E77G/H199R/N214S/Y58L). To be noted: cell-free; cited from earlier work.
The target of assay [7] is T1, HLA-DQ8trans (human, UniProt P01909 24-216; P01920 33-230, limits assumed).
T1 construct: Formed by the alpha-chain of HLA-DQ2 (DQA1*05:01) and the beta-chain of HLA-DQ8 (DQB1*03:02) (so in the source)
T1 MHC II alpha: not shown
T1 MHC II beta: not shown
Put plainly: cell-free HLA-DQ binding studies.

Another assay deals with HLA-DQ2cis (human, UniProt P01909 24-216, limits assumed). Put plainly: cell-free HLA-DQ binding studies.
Assay [8] concerns the target T2, HLA-DQ8cis (human, UniProt P01909 24-216; P01920 33-230, limits assumed).
T2 MHC II alpha: not shown
T2 MHC II beta: not shown
As to the kind of experiment: cell-free HLA-DQ binding studies.

Assay [9] addresses T3, HLA-DQ2trans (human, UniProt P01909 24-216, limits assumed).
T3 construct: Formed by the alpha-chain of HLA-DQ8 (DQA1*03:01) and the beta-chain of HLA-DQ2 (DQB1*02:01) (so in the source)
T3 MHC II alpha: not shown
T3 MHC II beta: not shown
Put plainly: cell-free HLA-DQ binding studies.

Regarding `C/C=C(/C)C(=O)O[C@H]1C(C)=C2[C@H]([C@@H]1OC(=O)CCCCCCC)[C@@](C)(OC(C)=O)C[C@H](OC(=O)CCC)[C@@]1(O)[C@H]2OC(=O)[C@@]1(C)O` [TG, thapsigargin], the “effect on DRiP-GFP expression” value in [1] is “increased in both variants”. Moreover, the DRiP protein expression entry in [2] is recorded as “goes up”. For the same molecule, in assay [2] (with or without IRE1 inhibition), the “insulin RNA expression” value is recorded as “goes down”. In addition, the “expression of DRiP polypeptide” value in assay [3] was “increased”.
Take MLYQHLLPL [INS-DRiP1-9]: on HLA-DQ2trans [4], the “binding affinity to HLA-DQ2trans” value is “not”. Besides, the “binding affinity to HLA-DQ8cis” value at HLA-DQ8cis [5] was “strong binding affinity”. Also, in the assay on HLA-A2, the “binding to HLA-A2” value was “high affinity”. For the same molecule, the “binding affinity to HLA-DQ8trans” value at HLA-DQ8trans [6] was “strong binding affinity”.
tunicamycin [TM]: the “expression of DRiP polypeptide” value in [3] is on record as “increased by TG but not TM”.

B1: INS-DRiP1-9 epitope MLYQHLLPL (peptide)
peptide: MLYQHLLPL
notes: Synthetic counterpart of the N-terminal 9-mer of INS-DRiP; also called 9-mer peptide; INS-DRiP peptide fragment
Turning to B1, the binding result is listed as “binds” with HLA-DQ8trans [7], “no binding” with HLA-DQ2cis, “binds” with HLA-DQ8cis [8] and “no binding” with HLA-DQ2trans [9].
